Laboratory results as given in the NIST ThermoML archive (doi:10.1016/j.jct.2016.03.012).
± gives the expanded uncertainty stated by the source.

Assay: wn = mass fraction of the nth substance listed
Conditions: 101 kPa, Liquid; for viscosity: Capillary tube (Ostwald / Ubbelohde) method; for speed of sound: Frequency=3 MHz, Linear variable-path acoustic interferometer; for mass density: Pycnometric method

O=C[C@@H](O)[C@@H](O)[C@H](O)[C@H](O)CO [D-mannose] + O
viscosity (293.15 K, w1 = 0.025): 1.074 ± 0.025 mPa·s
viscosity (293.15 K, w1 = 0.05): 1.146 ± 0.026 mPa·s
speed of sound (293.15 K, w1 = 0.025): 1495.7 ± 3.4 m/s
speed of sound (293.15 K, w1 = 0.05): 1508.3 ± 3.4 m/s
mass density (293.15 K, w1 = 0.05): 1017.15 ± 1.3 kg/m3
viscosity (298.15 K, w1 = 0.025): 0.9514 ± 0.022 mPa·s
viscosity (298.15 K, w1 = 0.05): 1.007 ± 0.023 mPa·s
speed of sound (298.15 K, w1 = 0.025): 1506.6 ± 3.4 m/s
speed of sound (298.15 K, w1 = 0.05): 1516.6 ± 3.4 m/s
mass density (298.15 K, w1 = 0.05): 1016.04 ± 1.3 kg/m3
viscosity (303.15 K, w1 = 0.025): 0.8479 ± 0.019 mPa·s
viscosity (303.15 K, w1 = 0.05): 0.8925 ± 0.021 mPa·s
speed of sound (303.15 K, w1 = 0.025): 1516.9 ± 3.4 m/s
speed of sound (303.15 K, w1 = 0.05): 1525.2 ± 3.4 m/s
mass density (303.15 K, w1 = 0.025): 1005.29 ± 1.3 kg/m3
mass density (303.15 K, w1 = 0.05): 1014.73 ± 1.3 kg/m3
viscosity (308.15 K, w1 = 0.025): 0.7636 ± 0.017 mPa·s
viscosity (308.15 K, w1 = 0.05): 0.8017 ± 0.018 mPa·s
speed of sound (308.15 K, w1 = 0.025): 1526.9 ± 3.4 m/s
speed of sound (308.15 K, w1 = 0.05): 1534.1 ± 3.4 m/s
mass density (308.15 K, w1 = 0.025): 1003.71 ± 1.3 kg/m3
mass density (308.15 K, w1 = 0.05): 1013.21 ± 1.3 kg/m3
viscosity (313.15 K, w1 = 0.025): 0.6922 ± 0.016 mPa·s
viscosity (313.15 K, w1 = 0.05): 0.7265 ± 0.017 mPa·s
speed of sound (313.15 K, w1 = 0.025): 1535.2 ± 3.4 m/s
speed of sound (313.15 K, w1 = 0.05): 1542.6 ± 3.4 m/s
mass density (313.15 K, w1 = 0.025): 1001.93 ± 1.3 kg/m3
mass density (313.15 K, w1 = 0.05): 1011.5 ± 1.3 kg/m3
viscosity (318.15 K, w1 = 0.025): 0.6347 ± 0.015 mPa·s
viscosity (318.15 K, w1 = 0.05): 0.6654 ± 0.015 mPa·s
speed of sound (318.15 K, w1 = 0.025): 1543 ± 3.4 m/s
speed of sound (318.15 K, w1 = 0.05): 1551 ± 3.4 m/s
mass density (318.15 K, w1 = 0.025): 999.95 ± 1.3 kg/m3
mass density (318.15 K, w1 = 0.05): 1009.58 ± 1.3 kg/m3
